Laboratory results as given in patent publication US20140031283A1, “ANTICANCER FUSION PROTEIN” (ADAMED SP. Z O.O., priority 2011, published 2014).
Several values for one entry are separate records, joined by “and”; a condition that tells them apart may be missing. Equal values may be shown once. Read-outs that look alike come from different tables or passages of the source.

Key:
[1] = test system: A549; assay: MTT cytotoxicity test, A549 (human lung cancer); format: cell-based
From the text: MTT assay is a colorimetric assay used to measure proliferation, viability and cytotoxicity of cells. It consists in decomposition of a yellow tetrazolium salt MTT (4,5-dimethyl-2-thiazolyl)-2,5-diphenyltetrazolium bromide) to the water-insoluble purple dye formazan by mitochondrial enzyme succinate-tetrazolium reductase 1. MTT reduction occurs only in living cells. Data analysis consists in determining IC50 concentration of the protein (in ng/ml), at which the 50% reduction in the number of cells occurs in the population treated compared to control cells. Results were analyzed using GraphPad Prism 5.0 software. The test was performed according to the literature descriptions (Cells, J E, (1998). Cell Biology, a Laboratory Handbook, second edition, Academic Press, San Diego; Yang, Y., Koh, L W, Tsai, J H., (2004); Involvement of viral and chemical factors with oral cancer in Taiwan, Jpn J Clin Oncol, 34 (4), 176-183). Cell culture medium was diluted to a defined density (10^4-10^5 cells per 100 μl). Then 100 μl of appropriately diluted cell suspension was applied to a 96-well plate in triplicates. Thus prepared cells were incubated for 24 h at 37° C. in 5% or 10% CO2, depending on the medium used, and then to the cells (in 100 μl of medium) further 100 μl of the medium containing various concentrations of tested proteins were added. In the case of combination hTRAIL114-281 and p21WAF effector protein, 100 μl of the medium containing mixture of hTRAIL114-281 and p21WAF effector protein in molar ratio 1:1 was added. After incubation of the cells with tested proteins over the period of next 72 hours, which is equivalent to 3-4 times of cell division, the medium with the test protein was added with […] of MTT working solution [5 mg/ml], and incubation was continued for 3 h at 37° C. in 5% CO2. Then the medium with MTT solution was removed, and formazan crystals were dissolved by adding 100 μl of DMSO. After stirring, the absorbance was measured at 570 nm (reference filter 690 nm). […]

[2] = test system: NCI-H460
[3] = test system: HCT-116
Protocol: Data analysis consists in determining IC50 concentration of the protein (in ng/ml), at which the 50% reduction in the number of cells occurs in the population treated compared to control cells. Results were analyzed using GraphPad Prism 5.0 software. […] Cell culture medium was diluted to a defined density (10^4-10^5 cells per 100 μl). Then 100 μl of appropriately diluted cell suspension was applied to a 96-well plate in triplicates. Thus prepared cells were incubated for 24 h at 37° C. in 5% or 10% CO2, depending on the medium used, and then to the cells (in 100 μl of medium) further 100 μl of the medium containing various concentrations of tested proteins were added. […] After incubation of the cells with tested proteins over the period of next 72 hours, which is equivalent to 3-4 times of cell division, the medium with the test protein was added with 20 ml of MTT working solution [5 mg/ml], and incubation was continued for 3 h at 37° C. in 5% CO2. Then the medium with MTT solution was removed, and formazan crystals were dissolved by adding 100 μl of DMSO. After stirring, the absorbance was measured at 570 nm (reference filter 690 nm).

[4] = test system: Colo 205; assay: MTT cytotoxicity test, Colo 205 (human colorectal cancer); format: cell-based
From the text: (§1) MTT assay is a colorimetric assay used to measure proliferation, viability and cytotoxicity of cells. It consists in decomposition of a yellow tetrazolium salt MTT (4,5-dimethyl-2-thiazolyl)-2,5-diphenyltetrazolium bromide) to the water-insoluble purple dye formazan by mitochondrial enzyme succinate-tetrazolium reductase 1. MTT reduction occurs only in living cells. Data analysis consists in determining IC50 concentration of the protein (in ng/ml), at which the 50% reduction in the number of cells occurs in the population treated compared to control cells. Results were analyzed using GraphPad Prism 5.0 software. The test was performed according to the literature descriptions (Cells, J E, (1998). Cell Biology, a Laboratory Handbook, second edition, Academic Press, San Diego; Yang, Y., Koh, L W, Tsai, J H., (2004); Involvement of viral and chemical factors with oral cancer in Taiwan, Jpn J Clin Oncol, 34 (4), 176-183). Cell culture medium was diluted to a defined density (10^4-10^5 cells per 100 μl). Then 100 μl of appropriately diluted cell suspension was applied to a 96-well plate in triplicates. […] After stirring, the absorbance was measured at 570 nm (reference filter 690 nm). […]

[5] = test system: HT-29; assay: MTT cytotoxicity test, HT-29 (human colorectal cancer); format: cell-based; conditions: continuous incubation over 72 h, test MTT
From the text: as §1

[6] = test system: DU-145; assay: MTT cytotoxicity test, DU-145 (human prostate cancer); format: cell-based; conditions: continuous incubation over 72 h
From the text: as §1

[7] = test system: MCF-7; assay: MTT cytotoxicity test, MCF-7 (human breast cancer); format: cell-based; conditions: continuous incubation over 72 h
From the text: as §1

[8] = test system: MDA-MB-231; assay: MTT cytotoxicity test, MDA-MB-231 (human breast cancer); format: cell-based; conditions: continuous incubation over 72 h, test MTT
From the text: as §1

[9] = test system: MDA-MB-435s; assay: MTT cytotoxicity test, MDA-MB-435s (human breast cancer); format: cell-based; conditions: continuous incubation over 72 h
From the text: as §1

[10] = test system: UM-UC-3; assay: MTT cytotoxicity test, UM-UC-3 (human bladder cancer); format: cell-based
From the text: as §1

[11] = test system: SW780; assay: MTT cytotoxicity test, SW780 (human bladder cancer); format: cell-based
From the text: as §1

[12] = test system: SW620; assay: MTT cytotoxicity test, SW620 (human colorectal cancer); format: cell-based; conditions: continuous incubation over 72 h, test MTT
From the text: as §1

[13] = test system: BxPC-3; assay: MTT cytotoxicity test, BxPC-3 (human pancreatic cancer); format: cell-based
From the text: as §1

[14] = test system: SK-OV-3; assay: MTT cytotoxicity test, SK-OV-3 (human ovarian cancer); format: cell-based; conditions: continuous incubation over 72 h
From the text: as §1

[15] = test system: NIH: OVCAR-3; assay: MTT cytotoxicity test, NIH: OVCAR-3 (human ovarian cancer); format: cell-based
From the text: as §1

[16] = test system: HepG2; assay: MTT cytotoxicity test, HepG2 (human liver hepatoma); format: cell-based; conditions: continuous incubation over 72 h, test MTT
From the text: as §1

[17] = test system: ACHN; assay: MTT cytotoxicity test, ACHN (human kidney cancer); format: cell-based; conditions: continuous incubation over 72 h
From the text: as §1

[18] = test system: CAKI 1; assay: MTT cytotoxicity test, CAKI 1 (human kidney cancer); format: cell-based; conditions: continuous incubation over 72 h
From the text: as §1

[19] = test system: CAKI 2; assay: MTT cytotoxicity test, CAKI 2 (human kidney cancer); format: cell-based; conditions: continuous incubation over 72 h
From the text: as §1

[20] = test system: HT144; assay: MTT cytotoxicity test, HT144 (human melanoma cells); format: cell-based
From the text: as §1

[21] = test system: MES-SA/Dx5; assay: MTT cytotoxicity test, MES-SA/Dx5 (multidrug-resistant human uterine sarcoma); format: cell-based; conditions: Table 4, mean/SD part
From the text: as §1

[22] = test system: SK-MES-1; assay: MTT cytotoxicity test, SK-MES-1 (human lung cancer); format: cell-based; conditions: Table 4, mean/SD part
From the text: as §1

[23] = test system: Panc-1; assay: MTT cytotoxicity test, Panc-1 (human pancreatic cancer); format: cell-based; conditions: continuous incubation over 72 h, test MTT
From the text: as §1

[24] = test system: Panc03.27; assay: MTT cytotoxicity test, Panc03.27 (human pancreatic cancer); format: cell-based; conditions: continuous incubation over 72 h
From the text: as §1

[25] = test system: PLC/PRF/5; assay: MTT cytotoxicity test, PLC/PRF/5 (human liver hepatoma); format: cell-based; conditions: continuous incubation over 72 h, test MTT
From the text: as §1

[26] = test system: LNCaP; assay: MTT cytotoxicity test, LNCaP (human prostate cancer); format: cell-based; conditions: Table 4, mean/SD part
From the text: as §1

[27] = test system: SK-Hep-1; assay: MTT cytotoxicity test, SK-Hep-1 (human liver hepatoma); format: cell-based; conditions: continuous incubation over 72 h
From the text: as §1

[28] = test system: A498; assay: MTT cytotoxicity test, A498 (human kidney cancer); format: cell-based; conditions: continuous incubation over 72 h
From the text: as §1

[29] = test system: HT1080; assay: MTT cytotoxicity test, HT1080 (human fibrosarcoma); format: cell-based; conditions: continuous incubation over 72 h
From the text: as §1

[30] = test system: Jurkat A3; assay: EZ4U cytotoxicity test, Jurkat A3 (human leukaemia); format: cell-based; conditions: continuous incubation over 72 h; heading prints test MTT
Protocol: EZ4U (Biomedica) test was used for testing cytotoxic activity of the proteins in nonadherent cell lines. The test is a modification of the MTT method, wherein formazan formed in the reduction of tetrazolium salt is water-soluble. Cell viability study was carried out after continuous 72-hour incubation of the cells with protein (seven concentrations of protein, each in triplicates). On this basis IC5O values were determined (as an average of two independent experiments) using the GraphPad Prism 5 software. Control cells were incubated with the solvent only.
The results of in vitro cytotoxicity tests are summarized as IC50 values (ng/ml), which corresponds to the protein concentration at which the cytotoxic effect of fusion proteins is observed at the level of 50% with respect to control cells treated only with solvent. Each experiment represents the average value of at least two independent experiments performed in triplicates. As a criterion of lack of activity of protein preparations the IC50 limit of 2000 ng/ml was adopted.

[31] = continuous incubation over 72 h, test MTT

Compound: CC[C@H](C)[C@H](NC(=O)[C@H](CC(C)C)NC(=O)[C@H](CCCNC(=N)N)NC(=O)[C@H](CCCNC(=N)N)NC(=O)[C@H](CCCCN)NC(=O)[C@H](CO)NC(=O)[C@H](Cc1c[nH]cn1)NC(=O)[C@H](Cc1ccc(O)cc1)NC(=O)[C@H](Cc1ccccc1)NC(=O)[C@H](CC(=O)O)NC(=O)[C@@H](NC(=O)[C@H](C)NC(=O)[C@H](CO)NC(=O)[C@@H](NC(=O)[C@H](CCC(N)=O)NC(=O)[C@H](CCCNC(=N)N)NC(=O)[C@H](CCCNC(=N)N)NC(=O)[C@@H](N)CCCCN)[C@@H](C)O)[C@@H](C)O)C(=O)N[C@@H](Cc1ccccc1)C(=O)N[C@@H](CO)C(=O)O [peptide derived from p21WAF]
- A549 IC50 ([1]; 72 h): >1000 µg/mL
- NCI-H460 IC50 ([2]; 72 h): >1000 µg/mL
- HCT116 IC50 ([3]; 72 h): >1000 µg/mL

Compound: TRAIL 95-281
- COLO205 IC50 [4, 31]: 0.05902 µg/mL
- HT29 IC50 [5]: >2 µg/mL
- DU145 IC50 [6]: >2 µg/mL
- MCF 7 IC50 [7]: >2 µg/mL
- MDA-MB-231 IC50 [8]: >2 µg/mL
- MDA-MB-435s IC50 [9]: >2 µg/mL
- UM-UC-3 IC50 [10, 31]: >2 µg/mL
- SW780 IC50 [11, 31]: 0.12 µg/mL
- SW620 IC50 [12]: >2 µg/mL
- BxPC3 IC50 [13, 31]: 0.06061 µg/mL
- SK-OV-3 IC50 [14]: >2 µg/mL
- OV-CAR-3 IC50 [15, 31]: 0.963 µg/mL
- HepG2 IC50 [16]: >2 µg/mL
- ACHN IC50 [17]: >2 µg/mL
- CAKI 1 IC50 [18]: 0.3953 µg/mL
- CAKI 2 IC50 [19]: >2 µg/mL
- HT144 IC50 [20, 31]: 0.0341 µg/mL
- A549 IC50 [1, 31]: >2 µg/mL
- HCT116 IC50 [3, 31]: >2 µg/mL

Compound: rhTRAIL 95-281
- COLO 205 mean (IC50) ([4]; Table 4, mean/SD part): 0.0249 µg/mL
- UM-UC-3 mean (IC50) ([10]; Table 4, mean/SD part): 2.242 µg/mL and 2.241 µg/mL
- SW780 mean (IC50) ([11]; Table 4, mean/SD part): 0.12 µg/mL
- BxPC3 mean (IC50) ([13]; Table 4, mean/SD part): 0.06471 µg/mL
- OVCAR-3 mean (IC50) ([15]; Table 4, mean/SD part): 0.963 µg/mL
- HT 144 mean (IC50) ([20]; Table 4, mean/SD part): 1.7335 µg/mL
- MES-SA/Dx5 mean (IC50) [21]: 0.02915 µg/mL
- SK-MES-1 mean (IC50) [22]: 0.0336 µg/mL
- Panc-1 IC50 [23]: >2 µg/mL
- Panc03.27 IC50 [24]: 0.315 µg/mL
- PLC/PRF/5 IC50 [25]: >2 µg/mL
- LNCaP mean (IC50) [26]: 2.0515 µg/mL
- SK Hep-1 IC50 [27]: >2 µg/mL
- A498 IC50 [28]: 1.611 µg/mL
- HT1080 IC50 [29]: >2 µg/mL
- JURKAT A3 IC50 [30]: >2 µg/mL
- NCI-H460 mean (IC50) ([2]; Table 4, mean/SD part): 5.8885 µg/mL and 5.888 µg/mL
- NCI-H460 IC50 [2, 31]: 0.4382 µg/mL
- HCT116 mean (IC50) ([3]; Table 4, mean/SD part): 7.558 µg/mL
